Experimental data reported in ChEMBL document CHEMBL1145008, “Relationship between stereochemistry and the beta3-adrenoceptor agonistic activity of 4'-hydroxynorephedrine derivative as an agent for treatment of frequent urination and urinary incontinence” (J Med Chem, 2003).

Legend:
[1] = molecular target: Beta-1 adrenergic receptor (Rattus norvegicus) (UniProt P18090)
Description: Mean concentration required to increase basal rate of rat atria by 20 beats per minute

[2] = molecular target: Beta-1 adrenergic receptor (Rattus norvegicus) (UniProt P18090); remark: listed apart in the source
Description: (§1) Agonistic activity for Beta-1 adrenergic receptor was estimated from it's chronotropic effect on rat atria

[3] = molecular target: Beta-1 adrenergic receptor (Rattus norvegicus) (UniProt P18090); remark: listed apart in the source
Description: as §1

[4] = molecular target: Beta-2 adrenergic receptor (Rattus norvegicus) (UniProt P10608); test: Agonistic activity for Beta-2 adrenergic receptor was assessed by it's inhibitory effect on spontaneous contractions in isolated rat uterus
Sequence of Beta-2 adrenergic receptor (Rattus norvegicus) (P10608 whole entry, looked up): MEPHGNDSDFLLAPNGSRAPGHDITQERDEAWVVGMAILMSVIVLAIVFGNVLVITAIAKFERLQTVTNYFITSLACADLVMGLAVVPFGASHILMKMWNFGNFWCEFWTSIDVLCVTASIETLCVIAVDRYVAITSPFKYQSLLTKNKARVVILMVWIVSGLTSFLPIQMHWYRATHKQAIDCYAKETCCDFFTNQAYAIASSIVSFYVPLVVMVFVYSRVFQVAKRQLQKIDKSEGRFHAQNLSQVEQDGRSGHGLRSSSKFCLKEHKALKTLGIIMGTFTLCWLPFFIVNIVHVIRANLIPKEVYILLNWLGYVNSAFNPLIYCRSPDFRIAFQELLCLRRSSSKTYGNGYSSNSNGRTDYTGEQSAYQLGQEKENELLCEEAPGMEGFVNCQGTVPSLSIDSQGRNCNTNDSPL

Sequence of Beta-1 adrenergic receptor (Rattus norvegicus) (P18090 whole entry, looked up): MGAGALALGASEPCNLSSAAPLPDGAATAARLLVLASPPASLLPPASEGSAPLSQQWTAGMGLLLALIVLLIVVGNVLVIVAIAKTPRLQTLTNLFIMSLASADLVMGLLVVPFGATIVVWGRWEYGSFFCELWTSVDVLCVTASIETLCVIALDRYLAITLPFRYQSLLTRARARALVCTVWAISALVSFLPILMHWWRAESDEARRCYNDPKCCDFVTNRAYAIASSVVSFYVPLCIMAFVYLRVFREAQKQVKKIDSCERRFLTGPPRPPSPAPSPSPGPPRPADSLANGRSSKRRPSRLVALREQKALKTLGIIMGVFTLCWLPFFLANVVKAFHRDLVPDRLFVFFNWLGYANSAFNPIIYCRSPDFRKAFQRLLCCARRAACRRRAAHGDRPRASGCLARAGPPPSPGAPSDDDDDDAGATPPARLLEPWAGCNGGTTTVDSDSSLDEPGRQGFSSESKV

Structure (SMILES)	EC20 [1]	pEC20 [2]	pEC20 [3]	IC50 [4]
C[C@@H](NCCc1ccc(OCC(=O)O)c(Cl)c1)[C@@H](O)c1ccc(O)cc1	14 µM	4.86		
CCOC(=O)COc1ccc(CCNC(C)C(O)c2ccc(O)cc2)cc1Cl (stereo not given)	1.6 µM		5.8	
C[C@H](Cc1ccc(OCC(=O)O)cc1)NC[C@H](O)c1cccc(Cl)c1 (relative stereo)				0.00912 µM

Now from value to compound, other results behind:

EC20 [1]	pEC20 [2]	pEC20 [3]	Structure (SMILES)	IC50 [4]
21 µM		4.68	C[C@@H](NCCc1ccc(OCC(=O)O)c(Cl)c1)[C@H](O)c1ccc(O)cc1	
55 µM		4.26	C[C@H](NCCc1ccc(OCC(=O)O)c(Cl)c1)[C@@H](O)c1ccc(O)cc1	
> 100 µM			C[C@H](NCCc1ccc(OCC(=O)O)c(Cl)c1)[C@H](O)c1ccc(O)cc1	
